According to patent publication US20240101667A1, “METHODS FOR IDENTIFYING LILRB-BLOCKING ANTIBODIES” (THE BOARD OF REGENTS OF THE UNIVERSITY OF TEXAS SYSTEM, priority 2020, published 2024):
Where a SMILES comes first, the peptide text is derived from it. The star is where a group is joined. Cbz = O=C(OCc1ccccc1)*; CH2F = FC*

What was measured:
Assay type in all cases: cell-based, human
[1] = tested on: THP-1, Molm13, MV4 AML cells; assay: AML cell death / growth in plates coated with anti-LILRB3 (PI staining); conditions: QNZ 10 μM
Experimental: Cell culture. THP-1, MV4-11, Molm13, U937, C1498 and 293T cells were purchased from ATCC. AML cell lines were cultured in RPMI-1640 with 10% FBS. Human anti-LILRB3 with the N297A mutation was coated onto the plate to activate LILRB3 signaling, and plates coated with human IgG (N297A) were used as controls. Cells infected with virus were cultured for at least an additional 3 weeks before analysis of LILRB3 signaling. Dead cells were identified using PI staining. Primary human T cells were isolated by autoMACS from donor PBMCs, stimulated with anti-CD3 and anti-CD28, and cultured in RPMI-1640 in the presence of IL-2. For the cytotoxic T lymphocyte assay, human AML cells were stained with CFSE and mixed at different ratios with activated T cells. After 10 hours, the percentage of PI-positive CFSE-stained AML cells was determined by FACS.

[2] = tested on: NF-κB signaling; assay: NF-κB reporter assay in THP-1-Lucia NF-κB cells; conditions: for NF-κB reporter activity activated by LILRB3: THP-1-Lucia cells activated with anti-LILRB3 antibody
Experimental: (§1) NF-κB reporter assay and LILRB3 chimeric receptor reporter assay. THP-1-Lucia™ NF-κB cells were purchased from InvivoGen. Human anti-LILRB3 antibody with the N297A mutation was coated onto the plate to activate LILRB3 signaling, and plates coated with hIgG (N297A) were used as the control. The activation of NF-κB signaling was evaluated by monitoring luciferase signal. Infected THP-1 reporter cells were cultured for an additional month before stimulation with anti-LILRB3. For the NF-κB reporter assay conducted in 293T cells, an NF-κB-driven firefly luciferase reporter plasmid co-transfected with a plasmid encoding CMV-driven Renilla luciferase along with plasmids expressing LILRB3, TRAF2, or cFLIP were transfected into cells. The luciferase activity was detected using the Dual-Luciferase® Reporter (DLR™) Assay System (Promega). LILRB3 chimeric receptor reporter cells were constructed as the inventors described (Deng et al., 2014; 2018; Kang et al., 2015), with LILRB3-ECD fused with the transmembrane and intracellular domains of paired immunoglobulin-like receptor β, which signals through the adaptor DAP-12 to activate the NFAT promoter.

[3] = tested on: NF-κB signaling; assay: NF-κB reporter assay in 293T cells
Experimental: as §1

Compound | effect of LILRB3 on survival of THP-1 cells [1] | NF-κB reporter activity activated by LILRB3 [2] | ability of LILRB3 to stimulate NF-κB through TRAF2 ([3]; 293T cells co-transfected with TRAF2 or LILRB3) | LILRB3-induced NF-κB activity in 293T cells ([3]; tet-on cFLIP, 0.2 ug/ml of dox) | LILRB3-induced NF-κB at low concentration of LPS ([2]; THP-1 cells)
Nc1ccc2ncnc(NCCc3ccc(Oc4ccccc4)cc3)c2c1 [QNZ] | partially abolished the effect of LILRB3 on survival of THP-1 cells | – | – | – | –
CC[C@H](C)[C@H](NC(=O)OCc1ccccc1)C(=O)N[C@@H](CCC(=O)OC)C(=O)N[C@H](C(=O)N[C@@H](CC(=O)OC)C(=O)CF)[C@@H](C)O [z-IETD-FMK] (Cbz-IE(OMe)TD(OMe)-CH2F) | – | inhibited the NF-κB reporter activity | – | – | –
COC(=O)C[C@H](NC(=O)[C@H](C)NC(=O)[C@@H](NC(=O)OCc1ccccc1)C(C)C)C(=O)CF [z-VAD-FMK] (Cbz-Val-Ala-Asp(OMe)-CH2F) | – | inhibited the NF-κB reporter activity | blocked the ability of LILRB3 to stimulate NF-κB through TRAF2 | blocked LILRB3-induced NF-κB activity | blocked LILRB3-induced NF-κB
